Experimental data taken from patent US20260138976A1 (Hoffmann-La Roche Inc., priority 2022, published 2026).

Test system: primary human T-cells
Experiment: IL2 secretion measurements (24 h, CD3-stimulated T-cells, PBS counter screen)
Format: cell-based
Settings: for Emax IL2 (% activation): CD3 condition, normalised to DMSO (neutral) and 20 μM reference compound A1 = 100%; for EC50: Homo sapiens, T-cell, CD3-stimulated primary human T-cells, IL2 secretion, fitted sigmoidal curve, read-out: Tcell IL2 CD3 EC50
Method in brief: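 Expanded primary human T-cells (100k/well) were plated on anti-CD3-coated or PBS-only plates with compound in a 5–6 point dose response (top 20 or 10 μM final, 3.333-fold, 0.2% DMSO). IL-2 in 24 h supernatants was quantified by ProQuantum immunoassay or ELISA. Values were normalized to DMSO and 20 μM reference compound A1 (100%), giving EC50 and Emax.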

`CC(C)(C#N)c1nnc(-c2ccc3c(c2)N(Cc2ccc(-c4noc(C5CCC(F)(F)CC5)n4)cc2)C(=O)[C@@H](N)CS3(=O)=O)o1` [Example 101, 2-[5-[(3R)-3-amino-5-[[4-[5-(4,4-difluorocyclohexyl)-1,2,4-oxadiazol-3-yl]phenyl]methyl]-1,1,4-trioxo-2,3-dihydro-1λ^6,5-benzothiazepin-7-yl]-1,3,4-oxadiazol-2-yl]-2-methyl-propanenitrile] was tested, and the “Emax IL2 (% activation)” value was 429 % activation and the EC50 was 3650 nM.

With `CC(C)(C#N)c1nnc(-c2ccc3c(c2)N(Cc2ccc(-n4cc(C(F)(F)F)cn4)cc2)C(=O)[C@@H](N)CS3(=O)=O)o1` [Example 102, 2-[5-[(3R)-3-amino-1,1,4-trioxo-5-[[4-[4-(trifluoromethyl)pyrazol-1-yl]phenyl]methyl]-2,3-dihydro-1λ^6,5-benzothiazepin-7-yl]-1,3,4-oxadiazol-2-yl]-2-methyl-propanenitrile] the “Emax IL2 (% activation)” value was 143 % activation and the EC50 was 635 nM.

For `CC(C)(C#N)c1nnc(-c2ccc3c(c2)N(Cc2ccc(-c4ncc(C(F)(F)F)o4)cc2)C(=O)[C@@H](N)CS3(=O)=O)o1` [Example 105, 2-[5-[(3R)-3-amino-1,1,4-trioxo-5-[[4-[5-(trifluoromethyl)oxazol-2-yl]phenyl]methyl]-2,3-dihydro-1λ^6,5-benzothiazepin-7-yl]-1,3,4-oxadiazol-2-yl]-2-methyl-propanenitrile], the “Emax IL2 (% activation)” value was 146 % activation and the EC50 was 999 nM.

In the case of `CC(C)(C#N)c1nnc(-c2ccc3c(c2)N(Cc2ccc(-c4ccc(C(F)(F)F)cc4)nc2)C(=O)[C@@H](N)CS3(=O)=O)o1` [Example 106], the “Emax IL2 (% activation)” value is reported as 121 % activation and the EC50 is reported as 3840 nM.

With `Cn1nc(C(F)(F)F)cc1-c1ccc(CN2C(=O)[C@@H](N)CS(=O)(=O)c3ccc(-c4nnc(C(C)(C)C#N)o4)cc32)cc1` [Example 107, 2-[5-[(3R)-3-amino-5-[[4-[2-methyl-5-(trifluoromethyl)pyrazol-3-yl]phenyl]methyl]-1,1,4-trioxo-2,3-dihydro-1λ^6,5-benzothiazepin-7-yl]-1,3,4-oxadiazol-2-yl]-2-methyl-propanenitrile] the “Emax IL2 (% activation)” value was 241 % activation and the EC50 was 1390 nM.

`CC(C)(C#N)c1nnc(-c2ccc3c(c2)N(Cc2ccc(-c4ccc(OC(F)F)cn4)cc2)C(=O)[C@@H](N)CS3(=O)=O)o1` [Example 108, 2-[5-[(3R)-3-amino-5-[[4-[5-(difluoromethoxy)-2-pyridyl]phenyl]methyl]-1,1,4-trioxo-2,3-dihydro-1λ^6,5-benzothiazepin-7-yl]-1,3,4-oxadiazol-2-yl]-2-methyl-propanenitrile] was tested, and the “Emax IL2 (% activation)” value was 245 % activation and the EC50 was 1560 nM.

With `CC(F)(F)c1ccc(-c2ccc(CN3C(=O)[C@@H](N)CS(=O)(=O)c4ccc(-c5nnc(C(C)(C)C#N)o5)cc43)cc2)nc1` [Example 109, 2-[5-[(3R)-3-amino-5-[[4-[5-(1,1-difluoroethyl)-2-pyridyl]phenyl]methyl]-1,1,4-trioxo-2,3-dihydro-1λ^6,5-benzothiazepin-7-yl]-1,3,4-oxadiazol-2-yl]-2-methyl-propanenitrile] the “Emax IL2 (% activation)” value was 360 % activation and the EC50 was 3400 nM.

In the case of `CC(C)(C#N)c1nnc(-c2ccc3c(c2)N(Cc2ccc(-c4cc(OC(F)F)ccn4)cc2)C(=O)[C@@H](N)CS3(=O)=O)o1` [Example 110, 2-[5-[(3R)-3-amino-5-[[4-[4-(difluoromethoxy)-2-pyridyl]phenyl]methyl]-1,1,4-trioxo-2,3-dihydro-1λ^6,5-benzothiazepin-7-yl]-1,3,4-oxadiazol-2-yl]-2-methyl-propanenitrile], the “Emax IL2 (% activation)” value is reported as 85 % activation and the EC50 is reported as 4110 nM.

`CC(C)(C#N)c1nnc(-c2ccc3c(c2)N(Cc2ccc(-c4ccnc(C(F)(F)F)c4)cc2)C(=O)[C@@H](N)CS3(=O)=O)o1` [Example 111, 2-[5-[(3R)-3-amino-1,1,4-trioxo-5-[[4-[2-(trifluoromethyl)-4-pyridyl]phenyl]methyl]-2,3-dihydro-1λ^6,5-benzothiazepin-7-yl]-1,3,4-oxadiazol-2-yl]-2-methyl-propanenitrile] was tested, and the “Emax IL2 (% activation)” value was 151 % activation and the EC50 was 1860 nM.

In the case of `CC(C)(C#N)c1nnc(-c2ccc3c(c2)N(Cc2ccc(-c4cnc(OC(F)(F)F)cn4)cc2)C(=O)[C@@H](N)CS3(=O)=O)o1` [Example 112], the “Emax IL2 (% activation)” value is reported as 139 % activation and the EC50 is reported as 832 nM.

With `CC(C)(C#N)c1nnc(-c2ccc3c(c2)N(Cc2ccc(-c4ccc(C(F)(F)F)nc4)cc2)C(=O)[C@@H](N)CS3(=O)=O)o1` [Example 113, 2-[5-[(3R)-3-amino-1,1,4-trioxo-5-[[4-[6-(trifluoromethyl)-3-pyridyl]phenyl]methyl]-2,3-dihydro-1λ^6,5-benzothiazepin-7-yl]-1,3,4-oxadiazol-2-yl]-2-methyl-propanenitrile] the “Emax IL2 (% activation)” value was 85 % activation and the EC50 was 1320 nM.

In the case of `Cc1nc(-c2ccc(CN3C(=O)[C@@H](N)CS(=O)(=O)c4ccc(-c5nnc(C(C)(C)C#N)o5)cc43)cc2)ccc1C(F)(F)F` [Example 114], the “Emax IL2 (% activation)” value is reported as 48 % activation and the EC50 is reported as 1050 nM.

`CC(C)(C#N)c1nnc(-c2ccc3c(c2)N(Cc2ccc(-c4cnn(C(F)(F)F)c4)cc2)C(=O)[C@@H](N)CS3(=O)=O)o1` [Example 115, 2-[5-[(3R)-3-amino-1,1,4-trioxo-5-[[4-[1-(trifluoromethyl)pyrazol-4-yl]phenyl]methyl]-2,3-dihydro-1λ^6,5-benzothiazepin-7-yl]-1,3,4-oxadiazol-2-yl]-2-methyl-propanenitrile] was tested, and the “Emax IL2 (% activation)” value was 112 % activation and the EC50 was 507 nM.

For `CC(C)(C#N)c1nnc(-c2ccc3c(c2)N(Cc2ccc(-c4cc(C(F)(F)F)ccn4)cc2)C(=O)[C@@H](N)CS3(=O)=O)o1` [Example 116, 2-[5-[(3R)-3-amino-1,1,4-trioxo-5-[[4-[4-(trifluoromethyl)-2-pyridyl]phenyl]methyl]-2,3-dihydro-1λ^6,5-benzothiazepin-7-yl]-1,3,4-oxadiazol-2-yl]-2-methyl-propanenitrile], the “Emax IL2 (% activation)” value was 87 % activation and the EC50 was 1030 nM.

In the case of `CC(C)(C#N)c1nnc(-c2ccc3c(c2)N(Cc2ccc(-c4ncc(OC(F)(F)F)cn4)cc2)C(=O)[C@@H](N)CS3(=O)=O)o1` [Example 117], the “Emax IL2 (% activation)” value is reported as 114 % activation and the EC50 is reported as 587 nM.

`CC(C)(C#N)c1nnc(-c2ccc3c(c2)N(Cc2ccc(-c4ccc(C5CC5)cn4)cc2)C(=O)[C@@H](N)CS3(=O)=O)o1` [Example 118, 2-[5-[(3R)-3-amino-5-[[4-(5-cyclopropyl-2-pyridyl)phenyl]methyl]-1,1,4-trioxo-2,3-dihydro-1λ^6,5-benzothiazepin-7-yl]-1,3,4-oxadiazol-2-yl]-2-methyl-propanenitrile] was tested, and the “Emax IL2 (% activation)” value was 172 % activation and the EC50 was 4070 nM.

For `CC(C)(C#N)c1nnc(-c2ccc3c(c2)N(Cc2ccc(-c4ccc(OC(F)(F)F)cc4)nc2)C(=O)[C@@H](N)CS3(=O)=O)o1` [Example 119, 2-[5-[(3R)-3-amino-1,1,4-trioxo-5-[[6-[4-(trifluoromethoxy)phenyl]-3-pyridyl]methyl]-2,3-dihydro-1λ^6,5-benzothiazepin-7-yl]-1,3,4-oxadiazol-2-yl]-2-methyl-propanenitrile], the “Emax IL2 (% activation)” value was 102 % activation and the EC50 was 1280 nM.
